Source: paper PMC8406801, “Naringenin Inhibits Platelet Activation and Arterial Thrombosis Through Inhibition of Phosphoinositide 3-Kinase and Cyclic Nucleotide Signaling” (Frontiers in Pharmacology, 2021)
“And” between values parts separate entries of the source, which are not always exact repeats. Equal values may be shown once.

Experiments:
[1] = tested on: washed platelets on collagen-coated coverslips; assay: Platelet adhesion on collagen-coated surface; type: cell-based, rat; conditions: for Area (%) of platelets adherent on collagen: single replicates
Experimental: Washed platelets were treated with naringenin or vehicle at 37°C for 10 min in the presence of 2 mM CaCl2 ([Suzuki-Inoue et al., 2001]). The platelets were added to collagen-coated coverslips and incubated at 37°C for 45 min. After unbound platelets were removed by washing, adherent platelets were fixed with 4% paraformaldehyde, permeabilized with 0.1% Triton X-100 and stained with TRITC-conjugated phalloidin (1 μg/ml). Adherent platelets were viewed using an inverted fluorescence microscope (Nikon TE-2000S) and processed using Image J software.

[2] = tested on: VASP Ser239 phosphorylation; assay: Immunoblotting of phospho-VASP (Ser239) in ADP-stimulated washed platelets, with or without PKA, PKG, PKC inhibitors; type: cell-based, rat; conditions: for p-VASP(Ser239) / GAPDH (Fold to ADP only) / p-VASP(Ser239) / GAPDH (raw data): ADP-stimulated, Figure 7C
Experimental: For in vitro platelet aggregation, aliquots of washed platelets were preincubated with vehicle or various concentrations of naringenin for 5 min and stimulated with ADP (10 μmol/L) under stirring at 37°C for 5 min. For ex vivo platelet aggregation, PRP was incubated at 37°C for 5 min and stimulated with ADP (5 μmol/L) under stirring at 37 °C. The platelet aggregation was terminated by adding ethylenediaminetetraacetic acid (EDTA; 10 mM). Total protein was prepared using RIPA lysis buffer and protein content was determined by bicinchoninic acid (BCA) protein assay kit. Equal amounts of platelet proteins (30 μg) were separated on 10% SDS polyacrylamide gel electrophoresis (SDS-PAGE) and then transferred to poly vinylidene difluoride (PVDF) membranes and subjected to western blot. Blots were blocked with TBS-Tween 20 containing 5% BSA and probed with primary antibodies diluted in blocking solution at 4°C overnight followed by incubation with the corresponding HRP secondary antibodies. The protein bands were visualized using enhanced chemiluminescence (ECL).
VASP is a substrate for cAMP- and cGMP- dependent protein kinases, which mediate cAMP- and cGMP-dependent inhibitory signaling in platelets, respectively. Increased cAMP levels followed by the activation of cAMP-dependent protein kinase A (PKA) phosphorylates VASP at position Ser157, whereas the elevation of cGMP leads to VASP phosphorylation at position Ser239 by cGMP-dependent protein kinase G (PKG) ([Aszódi et al., 1999]; [Li et al., 2003a]). To further examine whether naringenin modulates cAMP- or cGMP-mediated inhibitory signaling, the phosphorylation of VASP (Ser157 and Ser239) in washed platelets on stimulation with ADP were measured in the absence or presence of naringenin (100, 200, 400, and 800 μM). […] To further confirm the antiplatelet effects of naringenin through PKA-dependent signaling, the effects of naringenin on platelet aggregation were measured in the presence of PKG inhibitor (Rp-8-Br-PET-cGMPS) and PKA inhibitor (H89).
FIGURE 7 Naringenin promotes VASP phosphorylation. The effects of naringenin on phosphorylation of VASP (at positions Ser 157 and Ser239) were measured in washed platelets upon stimulation with ADP (10 μmol/L) by western blotting (A). The blots shown are representative of three separate experiments. The phosphorylation levels were quantified by ImageJ 1.47v software. The level of phosphorylation obtained with vehicle control (0 μM) was taken as 1 (B,C). R represents the phosphorylation level in resting platelets. Data are expressed as means ± SD (n = 3). *p < 0.05, ***p < 0.001 compared with the vehicle control group. VASP phosphorylation at Ser239 was also analyzed in washed platelets incubated with 5 μmol/L PKA (H89), 30 μmol/L PKG (Rp-8-Br-PET-cGMPS), or 5 μmol/L PKC (GF109203X) inhibitors before treatment with naringenin (D). Washed platelets were incubated with vehicle or naringenin (200 μmol/L) at 37°C in the presence or absence of 5 μmol/L PKA (H89) or 30 μmol/L PKG (Rp-8-Br-PET-cGMPS) inhibitors. After treatment, platelets were stimulated with ADP (10 μmol/L) to trigger aggregation (E). Data are expressed as means ± SD (n = 6). ***p < 0.001 compared with the ADP-treated group, ^# p < 0.05, ^### p < 0.001 compared with naringenin alone or H89 alone.

[3] = tested on: P-selectin exposure on washed platelets; assay: ADP-stimulated P-selectin exposure (flow cytometry); type: cell-based, rat; conditions: ADP 10 μM; for P-selectin exposure: mean ± SD, n = 3, 86.06 ± 9.05% without naringenin; for P-selectin (%): single replicates
Experimental: Flow cytometric assays were performed as described previously ([Wang et al., 2019]). ADP-stimulated P-selectin exposure and fibrinogen binding were determined in washed platelets. […] The platelets were immediately incubated with PE-labeled CD62P or FITC-labeled fibrinogen in the dark at room temperature for 15 min. The cells were finally fixed with 1% (v/v) paraformaldehyde prior to analysis using an Accuri C6 flow cytometer (BD Biosciences, United States).

PRP of treated rats = assay: Ex vivo ADP (5 μM)-induced platelet aggregation after oral dosing; type: in vivo, rat; conditions: for Aggregation (%): ex vivo, Figure 8A; for ADP-induced platelet aggregation ex vivo: rats, ADP 5 μM, mean ± SD, n = 6, vehicle 63.2 ± 3.6
Experimental: Male SD rats were randomly divided into 5 groups with 6 rats in each group. […] Sixty minutes after the last sample treatment, blood was drawn from the abdominal aorta of rats into the siliconized vacutainers containing 1:9 (v/v) 3.8% sodium citrate. The collected blood was centrifuged at 100 × g for 10 min at room temperature to obtain PRP. […] The platelet counts of PRP were adjusted to 4×10^8 cells/mL using PPP. PRP was incubated for 5 min at 37°C and then stimulated by ADP (5 μM). The maximum platelet aggregation rate was determined as mentioned above.

O=C1C[C@@H](c2ccc(O)cc2)Oc2cc(O)cc(O)c21 [Naringenin]
Area (%) of platelets adherent on collagen ([1]; 100 μM): 29.32% and 16.92% and 17.38%
Area (%) of platelets adherent on collagen ([1]; 200 μM): 17.54% and 13.16% and 17.35%
Area (%) of platelets adherent on collagen ([1]; 400 μM): 12.99% and 15.28% and 9.21%
Area (%) of platelets adherent on collagen ([1]; 800 μM): 2.55% and 1.74% and 1.66%
platelet adhesion on collagen-coated surface ([1]; 200, 400 and 800 μM): significantly reduced
phosphorylation of VASP at Ser239 ([2]; ADP-stimulated washed platelets, 100, 200, 400, and 800 μM): induced the phosphorylation of VASP at Ser239
p-VASP(Ser239) / GAPDH (Fold to ADP only) ([2]; naringenin 100 μM): 5.3418 and 4.6396 and 5.0239
p-VASP(Ser239) / GAPDH (raw data) ([2]; naringenin 100 μM): 0.6957 and 0.6043 and 0.6543
p-VASP(Ser239) / GAPDH (Fold to ADP only) ([2]; naringenin 200 μM): 4.4032 and 4.7219 and 3.7689
p-VASP(Ser239) / GAPDH (raw data) ([2]; naringenin 200 μM): 0.5735 and 0.6150 and 0.4909
p-VASP(Ser239) / GAPDH (Fold to ADP only) ([2]; naringenin 400 μM): 4.5890 and 4.9045 and 3.3393
p-VASP(Ser239) / GAPDH (raw data) ([2]; naringenin 400 μM): 0.5977 and 0.6388 and 0.4349
p-VASP(Ser239) / GAPDH (Fold to ADP only) ([2]; naringenin 800 μM): 5.3132 and 6.0564 and 4.7205
p-VASP(Ser239) / GAPDH (raw data) ([2]; naringenin 800 μM): 0.6920 and 0.7888 and 0.6148
P-selectin exposure ([3]; 200 μM): 58.33 ± 7.86%
P-selectin (%) ([3]; 200 μM): 50.70% and 58.70% and 65.60%
P-selectin exposure ([3]; 400 μM): 35.12 ± 11.91%
P-selectin (%) ([3]; 400 μM): 22.54% and 46.23% and 36.58%
P-selectin exposure ([3]; 800 μM): 31.56 ± 7.26%
P-selectin (%) ([3]; 800 μM): 24.10% and 32.22% and 38.35%
Aggregation (%) (PRP of treated rats; naringenin 200mg/kg): 44.3% and 43.6% and 49.2% and 46.7% and 39.1% and 43%
Aggregation (%) (PRP of treated rats; naringenin 400mg/kg): 34.4% and 37.3% and 35.4% and 28% and 25.8% and 22.9%
Aggregation (%) (PRP of treated rats; naringenin 800mg/kg): 12.7% and 17.8% and 16.5% and 21.5% and 19.3% and 11.6%
ADP-induced platelet aggregation ex vivo (PRP of treated rats; oral 200 mg/kg once a day for 7 days): 44.3 ± 3.4%
ADP-induced platelet aggregation ex vivo (PRP of treated rats; oral 400 mg/kg once a day for 7 days): 30.6 ± 5.9%
ADP-induced platelet aggregation ex vivo (PRP of treated rats; oral 800 mg/kg once a day for 7 days): 16.6 ± 3.8%
